Seven cell lines from the supplement of paper PMC10307832 can be followed below.

Common to all, as to assay: relative viability (nuclei count vs DMSO), 5 days (fraction); higher = more cells survive
Compound in assay [1]: N[C@@H]1CCCN(c2c(/C=C3\SC(=O)NC3=O)cccc2-c2ccccc2)C1 [AZD1208] + O=C(c1cc(Cc2n[nH]c(=O)c3ccccc23)ccc1F)N1CCN(C(=O)C2CC2)CC1 [Olaparib] (partner 8 µM)
The essentials: (§1)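 Lung cancer cell lines were pin-tool dosed in 1536-well plates on the day after seeding, with either a lone drug or a fixed anchor-drug dose plus five library-drug doses (not always all listed) in √10 steps. Nuclei were counted on 4× images after 5 days. Relative viability is the ratio of treated-well to vehicle-well nuclei counts, with each value a median of duplicate plates.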

Compound in assay [2]: CN1CCN(CC1)C2=CC(=C(C=C2)NC3=NC(=C(S3)C(=O)C4=C(C=CC=C4Cl)Cl)N)OC [XMD14-99] + CS(=O)(=O)N1CCN(Cc2cc3nc(-c4cccc5[nH]ncc45)nc(N4CCOCC4)c3s2)CC1 [Pictilisib] (partner 1 µM)
The method in brief:
as §1

Compound in assay [3]: N[C@@H]1CCCN(c2c(/C=C3\SC(=O)NC3=O)cccc2-c2ccccc2)C1 [AZD1208] + Cc1cc(Nc2cc(N3CCN(C)CC3)nc(Sc3ccc(NC(=O)C4CC4)cc3)n2)n[nH]1 [Tozasertib] (partner 0.1 µM)
The essentials: as §1

Compound in assay [4]: CN1CCN(CC1)C2=CC(=C(C=C2)NC3=NC(=C(S3)C(=O)C4=C(C=CC=C4Cl)Cl)N)OC [XMD14-99] + COc1cc2c(Oc3ccc(NC(=O)C4(C(=O)Nc5ccc(F)cc5)CC4)cc3F)ccnc2cc1OCCCN1CCOCC1 [Foretinib] (partner 0.25 µM)
The method in brief:
as §1

In the case of RERF-LC-KJ, the relative viability in assay [1] (first compound 0.08 µM) was 0.826; in assay [1] (first compound 0.253 µM), 0.965; in assay [1] (first compound 0.8 µM), 0.857; in assay [1] (first compound 2.53 µM), 0.825; in assay [1] (first compound 8 µM), 0.673; in assay [2] (first compound 0.08 µM) it was 0.668. Moreover, the relative viability in assay [2] (first compound 0.8 µM) amounted to 0.521; in assay [2] (first compound 2.53 µM), 0.487; in assay [2] (first compound 8 µM) it was 0.477; in assay [3] (first compound 0.08 µM), 0.505; in assay [3] (first compound 0.253 µM), 0.423; in assay [3] (first compound 0.8 µM) it was 0.56. Also, the relative viability stood at 0.519 in assay [3] (first compound 2.53 µM); 0.384 in assay [3] (first compound 8 µM); 0.462 in assay [4] (first compound 0.08 µM); 0.908 in assay [4] (first compound 0.8 µM); 0.867 in assay [4] (first compound 2.53 µM); 0.803 in assay [4] (first compound 8 µM).

Regarding EMC-BAC-2, the relative viability in assay [1] (first compound 0.08 µM) amounted to 0.517; in assay [1] (first compound 0.253 µM), 0.536; in assay [1] (first compound 0.8 µM), 0.494; in assay [1] (first compound 2.53 µM) it was 0.472; in assay [1] (first compound 8 µM) it was 0.448; in assay [2] (first compound 0.08 µM), 0.573. Moreover, the relative viability in assay [2] (first compound 0.8 µM) stood at 0.519; in assay [2] (first compound 2.53 µM), 0.519; in assay [2] (first compound 8 µM), 0.413; in assay [3] (first compound 0.08 µM), 0.28; in assay [3] (first compound 0.253 µM), 0.298; in assay [3] (first compound 0.8 µM), 0.28. For the same cell line, the relative viability in assay [3] (first compound 2.53 µM) turned out to be 0.25; in assay [3] (first compound 8 µM) it was 0.222; in assay [4] (first compound 0.08 µM), 1.05; in assay [4] (first compound 0.8 µM) it was 0.978; in assay [4] (first compound 2.53 µM), 0.854; in assay [4] (first compound 8 µM), 0.859.

Turning to LK-2, the relative viability is 0.677 in assay [1] (first compound 0.08 µM); 0.736 in assay [1] (first compound 0.253 µM); 0.444 in assay [1] (first compound 0.8 µM); 0.324 in assay [1] (first compound 2.53 µM); 0.353 in assay [1] (first compound 8 µM); 0.592 in assay [2] (first compound 0.08 µM). The relative viability in assay [2] (first compound 0.8 µM) is 0.506; in assay [2] (first compound 2.53 µM) it was 0.517; in assay [2] (first compound 8 µM), 0.465; in assay [3] (first compound 0.08 µM), 0.157; in assay [3] (first compound 0.253 µM) it was 0.2; in assay [3] (first compound 0.8 µM) it was 0.169. Moreover, the relative viability in assay [3] (first compound 2.53 µM) is 0.13; in assay [3] (first compound 8 µM), 0.168; in assay [4] (first compound 0.08 µM), 0.99; in assay [4] (first compound 0.8 µM), 1.17; in assay [4] (first compound 2.53 µM), 0.991; in assay [4] (first compound 8 µM) it was 1.2.

Regarding NCI-H2228, the relative viability is 0.557 in assay [1] (first compound 0.08 µM); 0.754 in assay [1] (first compound 0.253 µM); 0.584 in assay [1] (first compound 0.8 µM); 0.527 in assay [1] (first compound 2.53 µM); 0.673 in assay [1] (first compound 8 µM); 0.567 in assay [2] (first compound 0.08 µM). Also, the relative viability in assay [2] (first compound 0.8 µM) is 0.31; in assay [2] (first compound 2.53 µM) it was 0.271; in assay [2] (first compound 8 µM) it was 0.184; in assay [3] (first compound 0.08 µM), 0.258; in assay [3] (first compound 0.253 µM), 0.165; in assay [3] (first compound 0.8 µM) it was 0.168. Besides, the relative viability was found to be 0.172 in assay [3] (first compound 2.53 µM); 0.108 in assay [3] (first compound 8 µM); 0.994 in assay [4] (first compound 0.08 µM); 0.806 in assay [4] (first compound 0.8 µM); 0.83 in assay [4] (first compound 2.53 µM); 0.444 in assay [4] (first compound 8 µM).

As for NCI-H322M, the relative viability worked out at 0.762 in assay [1] (first compound 0.08 µM); 0.799 in assay [1] (first compound 0.253 µM); 0.726 in assay [1] (first compound 2.53 µM); 0.834 in assay [1] (first compound 8 µM); 0.514 in assay [2] (first compound 0.08 µM); 0.538 in assay [2] (first compound 0.8 µM). The relative viability in assay [2] (first compound 2.53 µM) was found to be 0.495; in assay [2] (first compound 8 µM) it was 0.476; in assay [3] (first compound 0.08 µM), 0.429; in assay [3] (first compound 0.253 µM), 0.492; in assay [3] (first compound 0.8 µM), 0.463; in assay [3] (first compound 2.53 µM) it was 0.463. The relative viability in assay [3] (first compound 8 µM) stood at 0.439; in assay [4] (first compound 0.08 µM), 1.01; in assay [4] (first compound 0.8 µM) it was 0.893; in assay [4] (first compound 2.53 µM) it was 0.932; in assay [4] (first compound 8 µM) it was 0.736.

For the cell line NCI-H1975, the relative viability in assay [1] (first compound 0.08 µM) was 0.734; in assay [1] (first compound 0.253 µM) it was 0.755; in assay [1] (first compound 0.8 µM) it was 0.766; in assay [1] (first compound 2.53 µM), 0.883; in assay [1] (first compound 8 µM), 0.793; in assay [2] (first compound 0.08 µM), 0.286. The relative viability in assay [2] (first compound 0.8 µM) was 0.317; in assay [2] (first compound 2.53 µM) it was 0.257; in assay [2] (first compound 8 µM) it was 0.197; in assay [3] (first compound 0.08 µM), 0.735; in assay [3] (first compound 0.253 µM), 0.712; in assay [3] (first compound 0.8 µM) it was 0.736. Also, the relative viability in assay [3] (first compound 2.53 µM) is 0.829; in assay [3] (first compound 8 µM), 0.639; in assay [4] (first compound 0.08 µM), 1.01; in assay [4] (first compound 0.8 µM), 0.92; in assay [4] (first compound 2.53 µM), 0.924; in assay [4] (first compound 8 µM), 0.817.

For the cell line NCI-H1944, the relative viability came out at 0.387 in assay [1] (first compound 0.08 µM); 0.411 in assay [1] (first compound 0.253 µM); 0.361 in assay [1] (first compound 0.8 µM); 0.373 in assay [1] (first compound 2.53 µM); 0.344 in assay [1] (first compound 8 µM); 0.325 in assay [2] (first compound 0.08 µM). The relative viability came out at 0.335 in assay [2] (first compound 0.8 µM); 0.337 in assay [2] (first compound 2.53 µM); 0.269 in assay [2] (first compound 8 µM); 0.242 in assay [3] (first compound 0.08 µM); 0.225 in assay [3] (first compound 0.253 µM); 0.226 in assay [3] (first compound 0.8 µM). Besides, the relative viability in assay [3] (first compound 2.53 µM) is 0.214; in assay [3] (first compound 8 µM) it was 0.202; in assay [4] (first compound 0.08 µM) it was 0.886; in assay [4] (first compound 0.8 µM), 0.841; in assay [4] (first compound 2.53 µM) it was 0.7; in assay [4] (first compound 8 µM), 0.631.
